29 compounds from patent publication US20240140944A1, “NOVEL NAPHTHYRIDINONE DERIVATIVE HAVING INHIBITORY ACTIVITY AGAINST ECTONUCLEOTIDE PYROPHOSPHATASE-PHOSPHODIESTERASE AND USE THEREOF” (TXINNO BIOSCIENCE INC., priority 2020, published 2024) can be followed below.

Each structure is given as a SMILES string. Structures can show the parent of a compound that is named as a salt.

For the assay, the target named is T1, human recombinant ENPP1 enzymes (Homo sapiens, UniProt P22413).
T1 construct: purchased R & D systems
T1 sequence (P22413 1-925): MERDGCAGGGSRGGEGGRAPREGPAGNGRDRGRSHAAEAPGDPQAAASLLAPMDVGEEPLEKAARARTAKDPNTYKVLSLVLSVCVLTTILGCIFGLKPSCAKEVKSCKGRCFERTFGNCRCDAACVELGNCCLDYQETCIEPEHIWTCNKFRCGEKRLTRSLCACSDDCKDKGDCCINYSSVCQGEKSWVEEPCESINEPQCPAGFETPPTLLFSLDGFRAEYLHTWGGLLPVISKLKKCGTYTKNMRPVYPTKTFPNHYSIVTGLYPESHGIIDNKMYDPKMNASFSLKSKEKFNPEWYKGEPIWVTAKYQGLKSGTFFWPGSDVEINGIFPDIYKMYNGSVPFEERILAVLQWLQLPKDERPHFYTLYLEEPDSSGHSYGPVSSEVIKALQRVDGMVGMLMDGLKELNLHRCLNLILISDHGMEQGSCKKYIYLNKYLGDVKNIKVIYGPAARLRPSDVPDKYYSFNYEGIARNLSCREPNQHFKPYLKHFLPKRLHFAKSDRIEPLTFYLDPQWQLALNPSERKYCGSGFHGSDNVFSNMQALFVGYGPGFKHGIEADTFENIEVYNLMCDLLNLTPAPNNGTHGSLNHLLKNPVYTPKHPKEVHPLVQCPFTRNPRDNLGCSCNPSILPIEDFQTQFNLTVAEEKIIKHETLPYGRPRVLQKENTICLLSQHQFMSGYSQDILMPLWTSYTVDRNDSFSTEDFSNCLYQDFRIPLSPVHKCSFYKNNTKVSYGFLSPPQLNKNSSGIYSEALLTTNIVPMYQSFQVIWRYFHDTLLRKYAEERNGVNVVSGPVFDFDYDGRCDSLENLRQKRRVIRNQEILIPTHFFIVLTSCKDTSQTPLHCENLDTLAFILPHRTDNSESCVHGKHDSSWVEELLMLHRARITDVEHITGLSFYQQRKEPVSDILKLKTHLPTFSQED
Briefly: ENPP1 Enzyme Assay with cGAMP Substrate (AMP-Glo). Type of assay: biochemical. The following applies: human recombinant ENPP1 3 ng/reaction, cGAMP 5 μM, 37° C. 90 minutes, average of two or more tests; read-out: Enzymatic activity IC50. Here is the method:
ENPP1 hydrolyzes nucleotides or nucleotide derivatives to produce nucleoside-5′-monophosphate and pyrophosphate. In addition, ENPP1 hydrolyzes 2′,3′-cGAMP to produce 5′-adenosine monophosphate (AMP) and 5′-guanosine monophosphate (GMP). AMP produced from the reaction is measured using the AMP-Glo® kit (Promega). The AMP-Glo® kit contains two reagents. The first reagent terminates the AMP-producing enzymatic reaction, removes ATP and converts the produced AMP into ADP. The second reagent converts ADP to ATP which is used to generate luminescence in the luciferase reaction. The amount of luminescence measured is proportional to the amount of AMP produced by ENPP1.
The final reaction mixture contains 50 mM Tris (pH 8.5) buffer, 250 mM NaCl, 0.5 mM CaCl2), 1 μM ZnCl2, 5% glycerol and 1% DMSO. Serially diluted ENPP1 inhibitors (typically in the range of 10 μM to 0.5 nM) were pre-stored with human recombinant ENPP1 enzymes (R & D systems) at 3 ng/reaction and room temperature (RT) for 5 to 10 minutes. The reaction was initiated by addition of cGAMP (at a final concentration of 5 μM) and reacted at 37° C. for 90 minutes. At the end of the reaction, 10 μl of the AMP-Glo first reagent was added to stop the reaction and the result was stored at room temperature for 1 hour. After storage, 20 μl of an AMP detection solution (a mixture of AMP-Glo II reagent and Kinase-Glo at a ratio of 1:100) was added and stored at room temperature for 1 hour. Luminescence signals were measured using a Victor® plate reader (Perkin Elmer). The maximal activity control (containing enzymes and substrates in the presence of 1% DMSO; MAX) and the minimal activity control (containing substrates and 1% DMSO; MIN) were evaluated simultaneously. In each experiment, serially diluted reference ENPP1 inhibitors were tested as well. IC50, indicating % residual activity versus compound concentration was determined by fitting inhibition curves using the 3-parameter analysis of GraphPad Prism® software. Serially diluted samples of one compound were tested two or more times and an average IC50 of each compound was calculated.

Turning to `C[C@H](NS(N)(=O)=O)c1ccc(-c2ccnc3[nH]c(=O)ccc23)cc1` [Example 47, (S)-(N-(1-(4-(7-oxo-7,8-dihydro-1,8-naphthyridin-4-yl)phenyl)ethyl)sulfamide hydrochloride], the IC50 (in general, the point on the concentration scale where inhibition reaches its midpoint) was under 1 µM.

For `C[C@H](c1ccc(-c2ccnc3[nH]c(=O)ccc23)cc1)N(C1CC1)S(N)(=O)=O` [Example 60, (R)-(N-cyclopropyl-N-(1-(4-(7-oxo-7,8-dihydro-1,8-naphthyridin-4-yl)phenyl)ethyl)sulfamide hydrochloride], the IC50 is 1 to 10 µM.

`NS(=O)(=O)NC1CCN(c2ccnc3[nH]c(=O)ccc23)CC1` [Example 123, N-(1-(7-oxo-7,8-dihydro-1,8-naphthyridin-4-yl)piperidin-4-yl)sulfamide]: the IC50 is under 1 µM.

Take `NS(=O)(=O)NCc1cc(Nc2ccnc3[nH]c(=O)ccc23)ccc1F` [Example 90, N-(2-fluoro-5((7-oxo-7,8-dihydro-1,8-naphthyridin-4-yl)amino)benzyl)sulfamide dihydrochloride]: the IC50 is under 1 µM.

In the case of `CC(C)(C)OC(=O)NCc1ccc(-c2ccnc3[nH]c(=O)ccc23)cc1` [Example 3, tert-butyl(4-(7-oxo-7,8-dihydro-1,8-naphthyridin-4-yl)benzyl)carbamate], the 50% inhibitory concentration (IC50) lay within 1 to 10 µM.

`NS(=O)(=O)NCCc1ccc(F)c(Nc2ccnc3[nH]c(=O)ccc23)c1` [Example 95, N-(4-fluoro-3-((7-oxo-7,8-dihydro-1,8-naphthyridin-4-yl)amino)phenethyl)sulfamide dihydrochloride]: the half-inhibitory concentration (IC50) is under 1 µM.

Turning to `NS(=O)(=O)N1CCc2cc(Nc3ccnc4[nH]c(=O)ccc34)c(F)cc2C1` [Example 106, (7-fluoro-6-((7-oxo-7,8-dihydro-1,8-naphthyridin-4-yl)amino)-3,4-dihydroisoquinolin-2(1H)-yl) sulfamide dihydrochloride], the IC50 is under 1 µM.

In the case of `O=c1ccc2c(-c3ccc(CNS(=O)(=O)C4CC4)cc3)ccnc2[nH]1` [Example 71, N-(4-(7-oxo-7,8-dihydro-1,8-naphthyridin-4-yl)benzyl)cyclopropanesulfonamide], the IC50 is 1 to 10 µM.

For the compound `NCc1cccc(-c2ccnc3[nH]c(=O)ccc23)c1` [Example 7, 5-(3-(aminomethyl)phenyl)-1,8-naphthyridin-2(1H)-one hydrochloride], the IC50 is under 1 µM.

For `NC1CCN(c2ccnc3[nH]c(=O)ccc23)CC1` [Example 113, 5-(4-aminopiperidin-1-yl)-1,8-naphthyridin-2(1H)-one hydrochloride], the IC50 is under 1 µM.

Take `Nc1cccc(-c2ccnc3c2CCC(=O)N3)c1` [Example 131, 5-(3-(aminophenyl)-3,4-dihydro-1,8-naphthyridin-2(1H)-one hydrochloride]: the IC50 was in the range of 1 to 10 µM.

As for `NCCC1CCN(c2ccnc3[nH]c(=O)ccc23)CC1` [Example 115, 5-(4-(2-aminoethyl)piperidin-1-yl)-1,8-naphthyridin-2(1H)-one hydrochloride], the IC50 is under 1 µM.

As for `NS(=O)(=O)N1CCc2ccc(Nc3ccnc4c3CCC(=O)N4)cc2C1` [Example 144, (7-(7-oxo-5,6,7,8-tetrahydro-1,8-naphthyridin-4-yl)amino)-3,4-dihydroisoquinoline-2(1H)-sulfamide hydrochloride], the IC50 is under 1 µM.

On to `NS(=O)(=O)N1CCc2cc(Nc3ccnc4[nH]c(=O)ccc34)ccc2C1` [Example 104, dihydrochloride], for which the IC50 lay in the range of 1 to 10 µM.

With `CC(C)(C)OC(=O)Nc1cccc(-c2ccnc3[nH]c(=O)ccc23)c1` [Example 1, tert-butyl(3-(7-oxo-7,8-dihydro-1,8-naphthyridin-4-yl)phenyl)carbamate], the IC50 is 1 to 10 µM.

As for `O=c1ccc2c(-c3ccc4c(c3)CNC4)ccnc2[nH]1` [Example 26, 5-(isoindolin-5-yl)-1,8-naphthyridin-2(1H)-one hydrochloride], the IC50 is under 1 µM.

With `O=c1ccc2c(Nc3ccc4c(c3)CNC4)ccnc2[nH]1` [Example 84, dihydrochloride], the IC50 is under 1 µM.

For `CN[C@@H](C)c1ccc(-c2ccnc3[nH]c(=O)ccc23)cc1` [Example 18, (S)-5-(4-(1-(methylaminoethyl)phenyl)-1,8-naphthyridin-2(1H)-one hydrochloride], the IC50 was under 1 µM.

Turning to `C[C@H](c1ccc(-c2ccnc3[nH]c(=O)ccc23)cc1)N(C)S(N)(=O)=O` [Example 59, (R)-(N-methyl-N-(1-(4-(7-oxo-7,8-dihydro-1,8-naphthyridin-4-yl)phenyl)ethyl)sulfamide hydrochloride], the IC50 is under 1 µM.

Turning to `NS(=O)(=O)N1CCc2cc(F)c(-c3ccnc4[nH]c(=O)ccc34)cc2C1` [Example 66, 6-fluoro-7-(7-oxo-7,8-dihydro-1,8-naphthyridin-4-yl)-3,4-dihydroisoquinoline-2(1H)-sulfamide hydrochloride], the IC50 was under 1 µM.

For `CC(C)(C)OC(=O)NS(=O)(=O)NCc1ccc(-c2ccnc3[nH]c(=O)ccc23)cc1` [Example 32, tert-butyl(N-(4-(7-oxo-7,8-dihydro-1,8-naphthyridin-4-yl)benzyl)sulfamoyl)carbamate], the IC50 is under 1 µM.

In the case of `O=c1ccc2c(Nc3ccc4c(c3)CNCCC4)ccnc2[nH]1` [Example 87, 5-((2,3,4,5-tetrahydro-1H-benzo[c]azepin-8-yl)amino)-1,8-naphthyridin-2(1H)-one dihydrochloride], the IC50 was over 10 µM.

Turning to `NS(=O)(=O)Nc1cccc(-c2ccnc3c2CCC(=O)N3)c1` [Example 139, N-(3-(7-oxo-5,6,7,8-tetrahydro-1,8-naphthyridin-4-yl)phenyl)sulfamide], the IC50 is under 1 µM.

For `Cc1ccc(S(=O)(=O)NCc2cccc(-c3ccnc4c3CCC(=O)N4)c2)cc1` [Example 147, 4-methyl-N-(3-(7-oxo-5,6,7,8-tetrahydro-1,8-naphthyridin-4-yl)benzyl)benzenesulfonamide], the half-inhibitory concentration (IC50) is under 1 µM.

Regarding `NS(=O)(=O)NCCc1cccc(Nc2ccnc3[nH]c(=O)ccc23)c1` [Example 92, N-(3-((7-oxo-7,8-dihydro-1,8-naphthyridin-4-yl)amino)phenethyl)sulfamide dihydrochloride], the IC50 is under 1 µM.

Turning to `NCc1ccc(-c2ccnc3c2CCC(=O)N3)cc1` [Example 133, 5-(4-(aminomethyl)phenyl)-3,4-dihydro-1,8-naphthyridin-2(1H)-one hydrochloride], the IC50 was under 1 µM.

On to `O=c1ccc2c(-c3ccc(CNS(=O)(=O)c4cccs4)cc3)ccnc2[nH]1` [Example 70, N-(4-(7-oxo-7,8-dihydro-1,8-naphthyridin-4-yl)benzyl)thiophene-2-sulfonamide], for which the half-maximal inhibitory concentration (IC50) is under 1 µM.

For the compound `CS(=O)(=O)NCc1cccc(-c2ccnc3c2CCC(=O)N3)c1` [Example 146, N-(3-(7-oxo-5,6,7,8-tetrahydro-1,8-naphthyridin-4-yl)benzyl)methanesulfonamide], the IC50 fell in the range of 1 to 10 µM.

With `NS(=O)(=O)N(Cc1ccc(Nc2ccnc3[nH]c(=O)ccc23)cc1)C1CC1` [Example 99, N-cyclopropyl-N-(4-((7-oxo-7,8-dihydro-1,8-naphthyridin-4-yl)amino)benzyl)sulfamide dihydrochloride], the IC50 lay in the range of 1 to 10 µM.
